Data on six compounds can be found in US11684599B2, “Very-long-chain polyunsaturated fatty acids, elovanoid hydroxylated derivatives, and methods of use” (Board of Supervisors of Louisiana State University and …, priority 2017, dated 2023).

The test system of assay [1] is ARPE-19 cells under UOS. The assay can be described thus: Western blot of pro-survival and pro-apoptotic proteins in RPE cells under UOS. Type of assay: cell-based, human. Particulars: for pro-apoptotic protein Bax / pro-apoptotic protein Bid / pro-apoptotic protein Bim: ARPE-19 cells under UOS; for SIRT1 expression: RPE under UOS; for Prohibitin (type-1) expression: concentration-dependent (100 and 250 nM); for Sirtuin1 (SIRT1) expression: dose-dependent, 100-200 nM. How it is done: ARPE19 cells at 75-80% confluence (72 h growth in DMEM/F12+10% FBS) in 6-well plates were serum-starved for 8 h before exposure. The serum-starved cells were treated with TNF-α (Sigma-Aldrich, St. Louis, Mo.) (10 ng/ml) and H2O2 (600 μM) to induce oxidative stress and challenged with increasing concentrations (50-500 nM) of VLC-PUFA (C32:6n3 and C34:6n3) simultaneously with oxidative stress for 16 h (apoptosis) and 6 h (Western-blot) before detection of apoptosis and harvesting for protein analysis. In some experiments, DHA at a concentration of 100 nM and 15-LOX-1 inhibitor PD146176 at a concentration of 1 μM was added to treat the RPE cells under stress. Cell extracts were made and protein concentrations adjusted by Bio-Rad (Hercules, Calif.) protein reagent and used for Western blot analysis.
Bcl-2 family proteins, SIRT1 and Proinhibitin (type-1), and Iduna proteins were analyze by Western blot analysis. In brief, 20-25 μg equivalents of each cell extracts were subject to electrophoresis on a 4-12% gel (Promega) at 125 V for 2 h. The proteins were transferred to nitrocellulose membrane by I-blot transfer apparatus. The membranes were subjected to treatment with primary antibodies specific for Bcl-2, Bcl-xL, Bax, Bid, Bim, SIRT1 and Prohibitin (type-1) (Santa Cruz Biotechnology) and Iduna antibody (Neuro-Mab Lab, UCLA, Los Angeles, Calif.) overnight at 4° C. and probed for 45 mins with secondary antibody, goat anti-mouse Ig:horseradish peroxidase, and horseradish peroxidase-conjugated anti-biotin antibody, and then proteins were evaluated by using an ECL kit (Amersham).
On the technique in general: A western blot detects proteins with antibodies after separation by electrophoresis.

Assay [2] deals with rats with middle cerebral artery occlusion (MCAo). The assay can be described thus: Immunohistochemistry (NeuN, GFAP, SMI-71, IgG) after MCAo. Type of assay: in vivo, rat. Particulars: for IgG staining intensity / IgG staining in the cortex: 7 days; for IgG staining intensity: compared with CSF-treated group; for IgG immunoreactivity in subcortex / IgG immunoreactivity in whole hemisphere (total): versus the vehicle group. On the procedure:
Male Sprague-Dawley rats (Charles River Lab., Wilmington, Mass.) weighing 280-340 g were fasted overnight but allowed free access to water. Atropine sulfate (0.5 mg/kg, i.p.) was injected 10 mins before anesthesia. Anesthesia was induced with 3% isoflurane in a mixture of 70% nitrous oxide and 30% oxygen. All rats were orally intubated and mechanically ventilated. During ventilation, the animals were paralyzed with pancuronium bromide (0.6 mg/kg, i.p.). The catheters were implanted into the right femoral artery and vein for the blood sampling and infusion of drug. Serial analyses of arterial blood gases, plasma glucose, arterial blood pressure and heart beating rate were conducted before and during surgical procedure. Rectal (CMA/150 Temperature Controller, CMA/Microdialysis AB, Stockholm, Sweden) and cranial (temporalis muscle; Omega Engineering, Stamford, Conn.) temperatures were closely monitored before, during and after MCAo. Rectal temperature and body weight were monitored daily until sacrifice.
Rats underwent 2 h of right middle cerebral artery occlusion (MCAo) by an intraluminal-filament. In brief, the right common carotid artery (CCA) bifurcation was exposed through a midline neck incision and the occipital artery branches of the external carotid artery were isolated, ligated and dissected. After careful isolation of the internal carotid artery (ICA), a 3-0 monofilament coated with poly-L-lysine was advanced through the ICA to the MCA until mild resistance was felt. The neck incision was closed with a silk suture and the animals were then allowed to recover. After 2 h of MCAo, rats were re-anesthetized with the same anesthetic combination. Temperature probes were re-inserted, and intraluminal sutures were carefully removed. The animals given free access to food and water for 7 days.
Thirty minutes after suture removal, a brain infusion cannula was implanted into the right lateral ventricle for treatment administration in each rat. Rats were anesthetized with 3% isoflurane and were secured to a stereotaxic apparatus with skull leveled between bregma and lambda. A sterile stainless steel cannula (5-mm long) was implanted into the lateral ventricle using the stereotaxic coordinates (0.2 mm caudal to bregma, 2 mm lateral to midline, and 5 mm below the dura). Cannulas were removed after treatment was completed.
Elovanoids (ELV) as sodium salts (Na) or methyl esters (Me) were dissolved in artificial cerebral spinal fluid (CSF) and administered into right lateral ventricle 1 hour after 2 h of MCAo. The following ELVs were used: ELV-N32-Na, ELV-N32-Me, ELV-N34-Na and ELV-N34-Me (5 μg/[…]) or CSF (50 μl). All treatments were administered by a researcher blinded to the treatment groups.
Brain edema was measured by the differences of ipsi- and contra-lateral hemispheres. Immunohistochemical procedures were performed on the adjacent sections to identify specific vascular and neuronal elements in the ischemic core and penumbra. The following antibodies were used: rat blood-brain barrier (SMI-71, BioLegend, San Diego, Calif.) as a vascular marker; glial fibrillary acid protein (GFAP, Agilent Tech. Santa Clara, Calif.) to label reactive astrocytes; and neuron-specific nuclear protein (NeuN, Chemicon/Millipore, Billerica, Mass.) and biotinylated anti-rat immunoglobulin (IgG) antibody (BioLegend, San Diego, Calif.) to detect BBB breakdown. The number of positive cells and immunopositive vessels were counted in the cortex and striatum at the level of the central lesion (bregma level −0.3 mm). Data were expressed as numbers of positive cells and vessels per high-power microscopic field (magnification ×40).
The images of sections were obtained using confocal laser microscope (LSM510, Carl Zeiss MicroImaging, Irvine, Calif.) following specific experimental protocols. The images were acquired with dimension 212.3 μm×212.3 μm using Zen software (Carl Zeiss MicroImaging). Image analysis was conducted using ImageJ software. […]

With `CC/C=C\C/C=C\C/C=C\C/C=C\C/C=C\C/C=C\CCCCCCCCCCCCC(=O)O` [32:6n3, (14Z,17Z,20Z,23Z,26Z,29Z)-dotriaconta-14,17,20,23,26,29-hexaenoic acid], in assay [1] (RPE cells under UOS), the “anti-apoptotic protein Bcl-2” value is reported as “upregulate” and the “anti-apoptotic protein Bcl-xL” value is “upregulate”. In assay [1] (VLC-PUFA), the “pro-apoptotic protein Bax” value is recorded as “down regulated”, the “pro-apoptotic protein Bid” value is recorded as “down regulated”, the “pro-apoptotic protein Bim” value is given as “down regulated” and the SIRT1 expression entry is on record as “upregulation”. Besides, the “Prohibitin (type-1) expression” value in assay [1] (VLC-PUFA) is “upregulation”. Besides, the Iduna expression entry in assay [1] (VLC-PUFA, RPE cells under UOS) is listed as “upregulation”.
As to `CC/C=C\C/C=C\C/C=C\C/C=C\C/C=C\C/C=C\CCCCCCCCCCCCCCC(=O)O` [34:6n3, (16Z,19Z,22Z,25Z,28Z,31Z)-tetratriaconta-16,19,22,25,28,31-hexaenoic acid], in assay [1] (RPE cells under UOS), the “anti-apoptotic protein Bcl-2” value is on record as “upregulate” and the “anti-apoptotic protein Bcl-xL” value was “upregulate”. Also, in assay [1] (VLC-PUFA), the “pro-apoptotic protein Bax” value is “down regulated”, the “pro-apoptotic protein Bid” value was “down regulated”, the “pro-apoptotic protein Bim” value is listed as “down regulated” and the SIRT1 expression entry is “upregulation”. The “Prohibitin (type-1) expression” value in assay [1] (VLC-PUFA) is recorded as “upregulation”. Further, the Iduna expression entry in assay [1] (VLC-PUFA, RPE cells under UOS) was “upregulation”.
For `CC/C=C\C[C@H](O)\C=C/C=C/C=C/[C@H](O)C/C=C\C/C=C\CCCCCCCCCCCCC(=O)OC` [ELV-N32-Me, methyl (14Z,17Z,20R,21E,23E,25Z,27S,29Z)-20,27-dihydroxydotriaconta-14,17,21,23,25,29-hexaenoate], in assay [2], the IgG staining intensity result was “similar”.
As to `CC/C=C\C[C@H](O)\C=C/C=C/C=C/[C@H](O)C/C=C\C/C=C\CCCCCCCCCCCCC(=O)[O-].[Na+]` [ELV-N32-Na, sodium (14Z,17Z,20R,21E,23E,25Z,27S,29Z)-20,27-dihydroxydotriaconta-14,17,21,23,25,29-hexaenoate], the Iduna expression entry in assay [1] (200 nM) is on record as “enhanced Iduna expression”. Moreover, the “relative potency in upregulating SIRT1” value in assay [1] (ELV-N32-Na versus ELV-N34-Na) was “more potent than ELV-N34-Na”. Besides, in assay [1] (RPE cells under UOS), the “anti-apoptotic protein Bcl-2” value is reported as “enhanced the abundance” and the “anti-apoptotic protein Bcl-xL” value is recorded as “enhanced the abundance”. In addition, the “Sirtuin1 (SIRT1) expression” value in assay [1] is “upregulate”. In addition, in assay [2], the IgG staining intensity entry was “similar”.
On to `CC/C=C\C[C@H](O)\C=C/C=C/C=C/[C@H](O)C/C=C\C/C=C\CCCCCCCCCCCCCCC(=O)OC` [ELV-N34-Me, methyl (16Z,19Z,22R,23E,25E,27Z,29S,31Z)-22,29-dihydroxytetratriaconta-16,19,23,25,27,31-hexaenoate], for which, in assay [2], the “IgG staining in the cortex” value is recorded as “significantly less IgG staining”, the “IgG immunoreactivity in subcortex” value is reported as “significantly reduced” and the “IgG immunoreactivity in whole hemisphere (total)” value is “significantly reduced”.
Turning to `CC/C=C\C[C@H](O)\C=C/C=C/C=C/[C@H](O)C/C=C\C/C=C\CCCCCCCCCCCCCCC(=O)[O-].[Na+]` [ELV-N34-Na, sodium (16Z,19Z,22R,23E,25E,27Z,29S,31Z)-22,29-dihydroxytetratriaconta-16,19,23,25,27,31-hexaenoate], the Iduna expression result in assay [1] (200 nM) is “enhanced Iduna expression”. In assay [1] (RPE cells under UOS), the “anti-apoptotic protein Bcl-2” value was “enhanced the abundance” and the “anti-apoptotic protein Bcl-xL” value is on record as “enhanced the abundance”. The “Sirtuin1 (SIRT1) expression” value in assay [1] is “upregulate”. Besides, in assay [2], the “IgG staining in the cortex” value is reported as “significantly less IgG staining”, the “IgG immunoreactivity in subcortex” value is “significantly reduced” and the “IgG immunoreactivity in whole hemisphere (total)” value is on record as “significantly reduced”.
